For test [1], the target named is T1, mTOR (Homo sapiens, UniProt P42345).
T1 construct: endogenous in cells; host or cells: MDA-MB-468 cells (ATCC HTB 132)
Description: Assay d) mTOR cellular potency (phospho-AKT Ser473 in MDA-MB-468 cells). Format: cell-based. The procedure:
Assay d): mTOR Cellular Potency
This assay was used to measure mTOR inhibition in cells. The aim of the phospho-AKT cell based mechanism of action assay using the Acumen Explorer is to identify inhibitors of either PI3Kα or mTOR-Rictor (Rapamycin insensitive companion of mTOR). This is measured by any decrease in the phosphorylation of the Akt protein at Ser473 (AKT lies downstream of PI3Kα in the signal transduction pathway) in the MDA-MB-468 cells following treatment with compound. Method Details:
MDA-MB-468 cells (human breast adenocarcinoma #ATCC HTB 132) were seeded at 1500 cells/well in 40 μl of DMEM containing 10% FBS and 1% glutamine into Greiner 384 well black flat-bottomed plates. Cell plates were incubated for 18 h in a 37° C. incubator before dosing with compounds of Formula (I) in 100% DMSO using acoustic dispensing. Compounds were dosed in a 12 point concentration range into a randomised plate map. Control wells were generated either by dosing of 100% DMSO (max signal) or addition of a reference compound (a PI3K-β inhibitor) that completely eliminated the pAKT signal (min control). Compounds were then tested by one of two assay protocols A or B:
Plates were incubated at 37° C. for 2 h; cells were then fixed by the addition of 10 μl of a 3.7% formaldehyde solution. After 30 minutes the plates were washed with PBS using a Tecan PW384 plate washer. Wells were blocked and cells permeabilised with the addition of 40 μl of PBS containing 0.5% Tween20 and 1% Marvel™ (dried milk powder) and incubated for 60 minutes at r.t. The plates were washed with PBS containing 0.5% (v/v) Tween20 and 20 μl rabbit anti-phospho AKT Ser473 (Cell Signalling Technologies, #3787) in same PBS-Tween+1% Marvel™ was added and incubated overnight at 4° C.
Plates were washed 3 times with PBS+0.05% Tween 20 using a Tecan PW384. 20 μl of secondary antibody Alexa Fluor 488 anti-Rabbit (Molecular Probes, #A11008) diluted in PBS+0.05% Tween20 containing 1% Marvel™ was added to each well and incubated for 1 h at r.t. Plates were washed three times as before then 20 μl PBS added to each well and plates sealed with a black plate sealer.
The plates were read on an Acumen plate reader as soon as possible, measuring green fluorescence after excitation with 488 nm laser. Using this system IC50 values were generated and quality of plates was determined by control wells. Reference compounds were run each time to monitor assay performance.
The cell plates were then incubated for 2 h at 37° C. before being fixed by the addition of 20 μl 3.7% formaldehyde in PBS/A (1.2% final concentration), followed by a 30 minute room temperature incubation, and then a 2× wash with 150 μl PBS/A using a BioTek ELx406 platewasher. Cells were permeabilised and blocked with 20 μl of assay buffer (0.1% Triton X-100 in PBS/A+1% BSA) for 1 h at room temperature, and then washed 1× with 50 μl PBS/A. Primary phospho-AKT (Ser473) D9E XP® rabbit monoclonal antibody (#4060, Cell Signaling Technology) was diluted 1:200 in assay buffer, 20 μl added per well, and plates were incubated at 4° C. overnight. Cell plates were washed 3× with 200 μl PBS/T, then 20 μl 1:750 dilution in assay buffer of Alexa Fluor® 488 goat anti-rabbit IgG secondary antibody (#A11008, Molecular Probes, Life Technologies), with a 1:5000 dilution of Hoechst 33342, was added per well. Following a 1 h incubation at room temperature, plates were washed 3× with 200 μl PBS/T, and 40 μl PBS w/o Ca, Mg and Na Bicarb (Gibco #14190-094) was added per well.
Stained cell plates were covered with black seals, and then read on the Cell Insight imaging platform (Thermo Scientific), with a 10× objective. The primary channel (Hoechst blue fluorescence 405 nM, BGRFR_386_23) was used to Autofocus and to count number of events (this provided information about cytotoxicity of the compounds tested). The secondary channel (Green 488 nM, BGRFR_485_20) measured pAKT staining. […]

Test [2] has as its target T2, ATM kinase (Homo sapiens, UniProt Q13315).
T2 construct: endogenous in cells; host or cells: HT29 cells (ECACC #85061109)
Description: Assay a) ATM cellular potency (pATM Ser1981 in X-ray irradiated HT29 cells). It counts as cell-based. The note with it: HT29 cells, 1 h compound, X-ray ~600 cGy, pATM Ser1981; may be geometric mean of several tests; read-out: Assay a) ATM Cell IC50. The procedure:
The following assays were used to measure the effects of the compounds of the present invention: a) ATM cellular potency assay; b) PI3K cellular potency assay; c) mTOR cellular potency assay; d) ATR cellular potency assay. During the description of the assays, generally: • i. […] IC50 values were calculated using a smart fitting model in Genedata. […] Assay a): ATM Cellular Potency Rationale:
Most ATM molecules in the cell are rapidly phosphorylated on this site after doses of radiation as low as 0.5 Gy, and binding of a phosphospecific antibody is detectable after the introduction of only a few DNA double-strand breaks in the cell.
The rationale of the pATM assay is to identify inhibitors of ATM in cells. HT29 cells are incubated with test compounds for 1 hr prior to X-ray-irradiation. 1 h later the cells are fixed and stained for pATM (Ser1981). The fluorescence is read on the arrayscan imaging platform.
The following morning compounds of Formula (I) in 100% DMSO were added to assay plates by acoustic dispensing. After 1 h incubation at 37° C. and 5% CO2, plates (up to 6 at a time) were irradiated using the X-RAD 320 instrument (PXi) with equivalent to ˜600 cGy. Plates were returned to the incubator for a further 1 h. […] Then 20 μl of 0.1% Triton X100 in PBS was added and incubated for 20 minutes at r.t., to permeabalise cells. Then the plates were washed once with 50 μl/well PBS, using a Biotek EL405 plate washer.
After 1 h incubation at r.t., the plates were washed three times with 50 μl/well PBS, using a Biotek EL405 plate washer, and plates were sealed and kept in PBS at 4° C. until read. Plates were read using an ArrayScan VTI instrument, using an XF53 filter with 10× objective.

Setting [3] is: pAKT Ser473, Protocol B (*); read-out: Assay d) mTOR Cell IC50.
Setting [4] is: pAKT Ser473, Protocol A (§); read-out: Assay d) mTOR Cell IC50.

Each structure is given as a SMILES string. Read-outs that look alike come from different tables or passages of the source. Where only a bound is given, the exact number is not on record here.

T2 sequence (Q13315 whole entry): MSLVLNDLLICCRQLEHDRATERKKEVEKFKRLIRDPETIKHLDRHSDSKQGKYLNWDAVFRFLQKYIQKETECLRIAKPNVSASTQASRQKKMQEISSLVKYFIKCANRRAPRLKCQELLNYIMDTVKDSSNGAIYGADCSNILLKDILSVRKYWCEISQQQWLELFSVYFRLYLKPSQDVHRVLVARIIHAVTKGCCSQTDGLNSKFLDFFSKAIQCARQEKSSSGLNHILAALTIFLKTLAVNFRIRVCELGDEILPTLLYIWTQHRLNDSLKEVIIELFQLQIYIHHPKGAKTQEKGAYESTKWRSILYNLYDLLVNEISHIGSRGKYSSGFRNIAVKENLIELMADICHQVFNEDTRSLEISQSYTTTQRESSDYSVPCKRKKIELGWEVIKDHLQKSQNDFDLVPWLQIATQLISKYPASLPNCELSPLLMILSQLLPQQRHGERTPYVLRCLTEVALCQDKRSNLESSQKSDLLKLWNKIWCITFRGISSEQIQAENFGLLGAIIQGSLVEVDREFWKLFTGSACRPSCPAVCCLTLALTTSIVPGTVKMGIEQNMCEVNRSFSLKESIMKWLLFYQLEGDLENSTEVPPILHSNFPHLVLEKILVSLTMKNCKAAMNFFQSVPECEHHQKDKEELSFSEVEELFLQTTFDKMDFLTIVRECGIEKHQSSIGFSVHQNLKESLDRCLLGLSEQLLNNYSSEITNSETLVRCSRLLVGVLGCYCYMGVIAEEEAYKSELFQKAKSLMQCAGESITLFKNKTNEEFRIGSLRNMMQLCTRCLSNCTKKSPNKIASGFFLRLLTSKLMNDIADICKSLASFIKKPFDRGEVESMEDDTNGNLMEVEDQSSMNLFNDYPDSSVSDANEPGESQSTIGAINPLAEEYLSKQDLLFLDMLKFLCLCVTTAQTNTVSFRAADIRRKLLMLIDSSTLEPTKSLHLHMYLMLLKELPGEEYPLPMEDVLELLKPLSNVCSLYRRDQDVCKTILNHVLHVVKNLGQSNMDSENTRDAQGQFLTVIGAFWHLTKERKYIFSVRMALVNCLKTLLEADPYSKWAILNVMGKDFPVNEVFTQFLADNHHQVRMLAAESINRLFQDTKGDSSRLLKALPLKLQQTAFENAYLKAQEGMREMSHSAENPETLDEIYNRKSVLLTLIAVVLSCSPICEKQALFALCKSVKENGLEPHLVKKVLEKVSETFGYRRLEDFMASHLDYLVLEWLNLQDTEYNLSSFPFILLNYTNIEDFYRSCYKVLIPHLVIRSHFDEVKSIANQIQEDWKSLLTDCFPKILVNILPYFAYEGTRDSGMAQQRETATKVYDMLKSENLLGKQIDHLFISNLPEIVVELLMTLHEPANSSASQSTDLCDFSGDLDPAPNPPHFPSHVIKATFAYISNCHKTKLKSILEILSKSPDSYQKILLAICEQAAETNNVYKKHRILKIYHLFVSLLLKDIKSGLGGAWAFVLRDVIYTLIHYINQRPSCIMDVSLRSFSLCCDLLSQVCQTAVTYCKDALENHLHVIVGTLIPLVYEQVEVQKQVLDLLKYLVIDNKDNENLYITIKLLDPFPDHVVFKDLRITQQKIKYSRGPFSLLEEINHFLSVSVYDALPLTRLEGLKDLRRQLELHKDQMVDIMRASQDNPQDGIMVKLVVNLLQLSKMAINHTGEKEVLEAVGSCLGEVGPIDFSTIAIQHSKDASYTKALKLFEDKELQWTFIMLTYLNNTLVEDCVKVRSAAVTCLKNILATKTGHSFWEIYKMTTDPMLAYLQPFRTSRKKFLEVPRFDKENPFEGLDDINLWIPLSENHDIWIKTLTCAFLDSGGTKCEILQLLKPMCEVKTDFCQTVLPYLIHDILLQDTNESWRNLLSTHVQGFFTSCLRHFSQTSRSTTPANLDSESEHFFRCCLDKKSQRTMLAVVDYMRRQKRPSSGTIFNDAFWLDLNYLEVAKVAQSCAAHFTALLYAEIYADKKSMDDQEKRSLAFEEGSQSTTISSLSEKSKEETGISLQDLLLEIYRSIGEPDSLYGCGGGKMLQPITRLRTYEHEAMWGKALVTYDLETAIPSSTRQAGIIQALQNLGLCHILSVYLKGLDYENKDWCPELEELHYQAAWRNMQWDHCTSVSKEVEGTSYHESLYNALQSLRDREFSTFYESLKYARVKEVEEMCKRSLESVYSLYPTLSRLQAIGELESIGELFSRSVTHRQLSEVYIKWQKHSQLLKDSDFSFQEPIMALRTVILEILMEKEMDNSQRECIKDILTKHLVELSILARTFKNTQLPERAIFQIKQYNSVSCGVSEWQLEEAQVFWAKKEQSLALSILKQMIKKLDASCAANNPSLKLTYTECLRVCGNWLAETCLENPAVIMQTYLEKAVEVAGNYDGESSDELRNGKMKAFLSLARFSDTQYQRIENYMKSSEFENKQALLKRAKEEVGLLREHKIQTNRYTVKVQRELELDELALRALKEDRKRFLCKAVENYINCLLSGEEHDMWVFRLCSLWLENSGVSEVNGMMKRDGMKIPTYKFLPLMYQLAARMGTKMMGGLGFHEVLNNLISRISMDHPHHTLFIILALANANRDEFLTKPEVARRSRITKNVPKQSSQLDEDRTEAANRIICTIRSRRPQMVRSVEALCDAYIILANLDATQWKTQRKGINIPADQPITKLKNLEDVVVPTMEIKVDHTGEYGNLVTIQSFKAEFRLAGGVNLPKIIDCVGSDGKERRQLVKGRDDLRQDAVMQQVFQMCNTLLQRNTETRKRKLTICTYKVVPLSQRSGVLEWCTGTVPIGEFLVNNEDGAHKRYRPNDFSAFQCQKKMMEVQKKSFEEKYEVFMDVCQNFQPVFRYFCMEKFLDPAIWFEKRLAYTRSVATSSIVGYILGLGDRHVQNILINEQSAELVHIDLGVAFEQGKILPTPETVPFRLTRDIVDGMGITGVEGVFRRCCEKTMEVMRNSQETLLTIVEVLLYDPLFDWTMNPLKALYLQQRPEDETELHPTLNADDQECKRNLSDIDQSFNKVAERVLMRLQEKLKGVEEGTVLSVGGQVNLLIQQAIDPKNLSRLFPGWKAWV

As for `CC(C)n1c(=O)n(C)c2cnc3cc(F)c(-c4ccc(OCCCN5CCCCC5)nc4)cc3c21` [Example 2, 7-Fluoro-1-isopropyl-3-methyl-8-[6-[3-(1-piperidyl)propoxy]-3-pyridyl]imidazo[4,5-c]quinolin-2-one], the IC50 in test [1] (setting [3]) was over 30 µM; in test [2], 0.787 nM.
With `CC(C)n1c(=O)n(C)c2cnc3cc(F)c(-c4ccc(OCCCN5CCCC5)nc4)cc3c21` [Example 3, 7-Fluoro-1-isopropyl-3-methyl-8-[6-(3-pyrrolidin-1-ylpropoxy)-3-pyridyl]imidazo[4,5-c]quinolin-2-one], the IC50 in test [1] (setting [4]) is over 20 µM; in test [2], 0.824 nM.
As to `CC(C)n1c(=O)n(C)c2cnc3cc(F)c(-c4ccc(OCCCN5CCC5)nc4)cc3c21` [Example 4, 8-[6-[3-(azetidin-1-yl)propoxy]-3-pyridyl]-7-fluoro-1-isopropyl-3-methyl-imidazo[4,5-c]quinolin-2-one], the values for the IC50 in test [1] (setting [4]) and in test [2] were over 30 µM and 1.59 nM, respectively.
Turning to `CC(C)n1c(=O)n(C)c2cnc3ccc(-c4ccc(OCCCN(C)C)nc4)cc3c21` [Example 6, 8-[6-[3-(dimethylamino)propoxy]-3-pyridyl]-1-isopropyl-3-methyl-imidazo[4,5-c]quinolin-2-one], the IC50 in test [1] (setting [4]) was over 3.12 µM; in test [2], 0.398 nM.
Turning to `CC(C)n1c(=O)n(C)c2cnc3ccc(-c4ccc(OCCCN5CCCC5)nc4)cc3c21` [Example 7, 1-isopropyl-3-methyl-8-[6-(3-pyrrolidin-1-ylpropoxy)-3-pyridyl]imidazo[4,5-c]quinolin-2-one], the IC50 in test [1] (setting [3]) was determined as 3.19 µM; in test [2], 0.256 nM.
Take `CC(C)n1c(=O)n(C)c2cnc3ccc(-c4ccc(OCCCN5CCC5)nc4)cc3c21` [Example 8, 8-[6-[3-(Azetidin-1-yl)propoxy]-3-pyridyl]-1-isopropyl-3-methyl-imidazo[4,5-c]quinolin-2-one]: the 50% inhibitory concentration (IC50) came to 0.405 µM in test [1] (setting [3]) and 0.698 nM in test [2].
On to `CC(C)n1c(=O)n(C)c2cnc3ccc(-c4ccc(OCCCN5CCCCC5)nc4F)cc3c21` [Example 9, 8-[2-Fluoro-6-[3-(1-piperidyl)propoxy]-3-pyridyl]-1-isopropyl-3-methyl-imidazo[4,5-c]quinolin-2-one], for which the half-maximal inhibitory concentration (IC50) in test [1] (setting [4]) is over 5.19 µM; in test [2], under 0.453 nM.
Take `CC(C)n1c(=O)n(C)c2cnc3ccc(-c4ccc(OCCCN(C)C)nc4F)cc3c21` [Example 10, 8-[6-[3-(dimethylamino)propoxy]-2-fluoro-3-pyridyl]-1-isopropyl-3-methyl-imidazo[4,5-c]quinolin-2-one]: the half-inhibitory concentration (IC50) was 3.49 µM in test [1] (setting [3]) and 0.686 nM in test [2].
On to `CC(C)n1c(=O)n(C)c2cnc3ccc(-c4ccc(OCCCN5CCCC5)nc4F)cc3c21` [Example 12, 8-[2-fluoro-6-(3-pyrrolidin-1-ylpropoxy)-3-pyridyl]-1-isopropyl-3-methyl-imidazo[4,5-c]quinolin-2-one], for which the IC50 is over 10 µM in test [1] (setting [3]) and 0.799 nM in test [2].
As for `CC(C)n1c(=O)n(C)c2cnc3cc(F)c(-c4ccc(OCCCN5CCCC5)nc4F)cc3c21` [Example 13, 7-fluoro-8-[2-fluoro-6-(3-pyrrolidin-1-ylpropoxy)-3-pyridyl]-1-isopropyl-3-methyl-imidazo[4,5-c]quinolin-2-one], the IC50 in test [1] (setting [3]) is over 30 µM; in test [2] it was 1.32 nM.
`CC(C)n1c(=O)n(C)c2cnc3cc(F)c(-c4ccc(OCCCN5CCCCC5)nc4F)cc3c21` [Example 14, 7-fluoro-8-[2-fluoro-6-[3-(1-piperidyl)propoxy]-3-pyridyl]-1-isopropyl-3-methyl-imidazo[4,5-c]quinolin-2-one]: the IC50 in test [1] (setting [3]) is over 30 µM; in test [2], 3.51 nM.
Take `CC(C)n1c(=O)n(C)c2cnc3cc(F)c(-c4ccc(OCCCN5CCC5)nc4F)cc3c21` [Example 16, 8-[6-[3-(azetidin-1-yl)propoxy]-2-fluoro-3-pyridyl]-7-fluoro-1-isopropyl-3-methyl-imidazo[4,5-c]quinolin-2-one]: the half-maximal inhibitory concentration (IC50) in test [1] (setting [4]) was over 29.9 µM; in test [2], 2.29 nM.
For the molecule `CC(C)n1c(=O)[nH]c2cnc3cc(F)c(-c4ccc(OCCCN5CCCCC5)nc4)cc3c21` [Example 18, 7-Fluoro-1-isopropyl-8-[6-[3-(1-piperidyl)propoxy]-3-pyridyl]-3H-imidazo[4,5-c]quinolin-2-one], the IC50 is over 30 µM in test [1] (setting [4]) and 3.14 nM in test [2].
In the case of `CC(C)n1c(=O)n(C)c2cnc3cc(F)c(-c4ccc(OCCC[N+]5([O-])CCCCC5)nc4)cc3c21` [Metabolite A, 7-Fluoro-1-isopropyl-3-methyl-8-[6-[3-(1-oxidopiperidin-1-ium-1-yl)propoxy]-3-pyridyl]imidazo[4,5-c]quinolin-2-one], the results for the concentration for half-maximal inhibition (IC50) in test [1] (setting [3]) and in test [2] were over 30 µM and 35 nM, respectively.

By IC50 is commonly meant the concentration that inhibits the measured activity by half.

The values are drawn from patent US10457679B2, “Imidazo[4,5-c]quinolin-2-one compounds and their use in treating cancer” (AstraZeneca AB, priority 2015, dated 2019).
